The target in assay [1] is T1, human AR (Homo sapiens, UniProt P10275).
T1 construct: expressed in transfected cells; host or cells: HeLa13 (HeLa 13)
T1 sequence (P10275 1-920): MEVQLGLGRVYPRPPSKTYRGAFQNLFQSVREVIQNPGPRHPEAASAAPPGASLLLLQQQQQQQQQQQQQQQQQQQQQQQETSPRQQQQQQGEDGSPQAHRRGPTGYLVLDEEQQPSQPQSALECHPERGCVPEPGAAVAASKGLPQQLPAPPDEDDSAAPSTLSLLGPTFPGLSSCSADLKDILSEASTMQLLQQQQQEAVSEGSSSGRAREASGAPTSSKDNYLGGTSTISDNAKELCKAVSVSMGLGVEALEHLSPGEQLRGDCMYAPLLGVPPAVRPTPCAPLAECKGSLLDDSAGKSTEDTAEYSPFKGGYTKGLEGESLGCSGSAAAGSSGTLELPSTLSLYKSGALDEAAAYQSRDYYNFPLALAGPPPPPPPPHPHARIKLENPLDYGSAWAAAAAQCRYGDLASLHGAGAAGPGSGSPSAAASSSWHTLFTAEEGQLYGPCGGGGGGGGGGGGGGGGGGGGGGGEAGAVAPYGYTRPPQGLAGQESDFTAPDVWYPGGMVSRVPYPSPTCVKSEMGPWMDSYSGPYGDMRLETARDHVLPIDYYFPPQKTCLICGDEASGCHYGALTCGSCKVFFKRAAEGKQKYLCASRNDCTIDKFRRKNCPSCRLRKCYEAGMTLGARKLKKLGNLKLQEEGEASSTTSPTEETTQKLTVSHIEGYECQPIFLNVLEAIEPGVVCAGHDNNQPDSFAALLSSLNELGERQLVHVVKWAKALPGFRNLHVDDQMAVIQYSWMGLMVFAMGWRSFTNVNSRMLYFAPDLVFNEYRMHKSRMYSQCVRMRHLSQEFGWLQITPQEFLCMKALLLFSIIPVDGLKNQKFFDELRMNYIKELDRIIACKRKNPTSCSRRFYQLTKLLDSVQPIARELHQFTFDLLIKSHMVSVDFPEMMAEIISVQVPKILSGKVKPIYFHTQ
The assay can be described thus: AR-mediated induction of PSA-luciferase reporter by R1881 in HeLa13 cells. The format is cell-based. Particulars: R1881 1.0 nM, read-out: % Inhibition of AR-Mediated Gene Induction. The source says:
(§1) The engineered T47D breast cancer cell lines employed for the assessment of flavonoid activity on glucocorticoid receptor (GR) and progesterone receptor (PR) signaling permitted the facile quantitation transcription of both an endogenous gene and a stably integrated reporter gene. […] The T47D K5pLuc cell line responds to progestins via induction of a stably integrated cytokeratin 5-luciferase reporter gene. […] For assessment of the effect of the test compounds on androgen receptor (AR) signaling, we used the HeLa13 cell line engineered to stably express human AR and a PSA-luciferase reporter gene containing a 4× multimerized PSA upstream enhancer ARE1 linked to the E4 TATA box and luciferase gene.
Experiments testing the effect of flavonoid on androgen receptor-mediated transcription employed HeLa 13 cells maintained in MEM medium supplemented with 10% FBS, 0.5 mg/mL G418, 0.05 mg/mL Hygromycin B, […], and streptomycin (100 μg/mL). For reporter gene experiments, cells were replated at a 1:5 dilution in MEM medium with 5% charcoal-stripped FBS and the antibiotics mentioned above. The medium was changed the next day. After 48 h, the cells were washed with PBSE, detached with phenol red-free trypsin, pelleted, resuspended and plated in 96 well plates as above. Hormone and flavonoid treatments were performed as described above with the HeLa 13 medium and charcoal-stripped FBS. When treated with hormone, the synthetic androgen, R1881, was used at 1.0 nM. Hormone treatment was for 20 h at which time cells were harvested for assay of luciferase.
(§2) For all cell lines, cell harvesting and the luminescence assay for alkaline phosphatase and/or luciferase were performed as previously described in detail. Each condition was performed in quadruplicate. […] Percent inhibition is 100 minus the percent induction.
(In general: Reporter assays use an easily measured gene product as a stand-in for the process of interest.)

Assay [2] relates to estrogen receptor (ER). The assay can be described thus: ER-mediated luciferase reporter induction in T47D KBluc cells. The format is cell-based, human. The settings on record: for % ER Induction: relative to 1nM estradiol. As to the method:
Experiments testing the effect of flavonoids on estrogen receptor-mediated transcription employed T47D KBluc cells. These cells were maintained in RPMI medium with 10% FBS, penicillin (100 U/mL), and streptomycin (100 μg/mL). For reporter gene experiments, cells were detached as above and replated at 50% confluency in phenol red-free RPMI media with 10% charcoal-stripped FBS and antibiotics (day one). All subsequent steps used phenol red-free medium and trypsin. On day three, the medium was replaced with fresh medium. On day five, cells were washed with PBSE, detached, resuspended, diluted, and replated in the phenol red-free RPMI with charcoal-stripped serum (50,000 cells per well as above).
as §2

Assay [3] concerns estrogen receptor (ER). More on the design: method as in PMID 11925457. Particulars: previous report; cited from earlier work.
In assay [4] the target is T2, progesterone receptor (PR) (Homo sapiens, UniProt P06401).
T2 sequence (P06401 679-933 limits assumed): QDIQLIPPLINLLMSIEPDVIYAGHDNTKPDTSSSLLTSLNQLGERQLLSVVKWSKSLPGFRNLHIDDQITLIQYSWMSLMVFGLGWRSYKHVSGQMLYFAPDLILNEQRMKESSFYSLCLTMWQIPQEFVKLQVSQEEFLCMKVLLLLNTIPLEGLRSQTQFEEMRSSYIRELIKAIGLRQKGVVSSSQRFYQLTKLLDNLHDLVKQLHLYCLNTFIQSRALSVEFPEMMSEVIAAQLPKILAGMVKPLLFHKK
Kind of assay: PR-mediated induction of transcription by R5020 in T47D K5pLuc cells (luciferase reporter and endogenous alkaline phosphatase). The format is cell-based. The settings on record: T47D, 8 µM, R5020 1.0 nM.
Text: as §1
Experiments testing the effect of flavonoids on progesterone receptor-mediated transcription employed T47D K5pluc cells. The protocol was the same as that for T47D (A1-2) cells except the medium was Dulbecco’s Modified Eagle’s Medium supplemented with 10% FBS, insulin (10 nM), puromycin 200 ng/mL, nonessential amino acids, penicillin (100 U/mL), and streptomycin (100 μg/mL). When treated with hormone, the synthetic progestin, R5020, was used at 1.0 nM. Hormone treatment was for 20 h at which time cells were harvested for assay of alkaline phosphatase and luciferase.
as §2

The inhibition is the drop in the measured response relative to a control, in per cent. Regarding `O=c1c(O)c(-c2ccc(O)cc2)oc2ccc(O)cc12` [3,6,4′-trihydroxyflavone], in assay [1], the inhibition at 1 µM is 53% and the inhibition at 4 µM amounted to 71%. Also, the “% ER Induction” value in assay [2] (1 µM) stood at 102%. Moreover, the “% ER Induction” value in assay [2] (4 µM) amounted to 108%. Also, the “EC50 lower than that of 6,4′-dihydroxyflavone” value in assay [2] (comparison at lower concentrations) is given as 2–3 fold. Moreover, the “affinity for ER greater than that of 6,4′-dihydroxyflavone” value in assay [3] is reported as 3 fold.

Take `COc1cccc2oc(-c3ccc(O)cc3)cc(=O)c12` [5-methoxy,4′-hydroxyflavone]: in assay [1], the inhibition at 1 µM was -4% and the inhibition at 4 µM worked out at 34%. Besides, the “% ER Induction” value in assay [2] (1 µM) is recorded as −2%. Also, in assay [2] (4 µM), the “% ER Induction” value worked out at 10%.

With `COc1ccc(-c2cc(=O)c3cc(O)ccc3o2)cc1` [6-hydroxy,4′-methoxyflavone], in assay [1], the inhibition at 1 µM is 32% and the inhibition at 4 µM worked out at 39%. Also, in assay [2] (1 µM), the “% ER Induction” value is listed as 63%. The “% ER Induction” value in assay [2] (4 µM) is 131%.

In the case of `O=C1CC(c2ccccc2)Oc2ccc(O)cc21` (stereo not drawn) [6-hydroxyflavanone], in assay [1], the inhibition at 1 µM is -8%. The inhibition at 4 µM in assay [1] came out at 22%. Besides, the “% ER Induction” value was 15% in assay [2] (1 µM) and 111% in assay [2] (4 µM).

Turning to `COc1ccc2oc(-c3ccc(O)cc3)cc(=O)c2c1` [6-methoxy,4′-hydroxyflavone], in assay [1], the inhibition at 1 µM amounted to 27% and the inhibition at 4 µM was found to be 49%. For the same compound, in assay [2] (1 µM), the “% ER Induction” value is given as 129%. In addition, in assay [2] (4 µM), the “% ER Induction” value was 167%.

Turning to `Oc1ccc(C2COc3cc(O)ccc3C2)cc1` (stereo not drawn) [7,4′-dihydroxyisoflavan], the results for the inhibition at 8 µM in assay [4] (AP (alkaline phosphatase)) and in assay [4] (LUC (luciferase)) were 42% and -88%, respectively. In assay [1], the inhibition at 4 µM came out at 22%. The “% ER Induction” value is recorded as 96% in assay [2] (1 µM) and 84% in assay [2] (4 µM).

Source of the values: article PMC11940309, “Endocrine-Disrupting Activities of Flavones on Steroid Receptors: Structural Requirements and Synthesis of Novel Flavone with Improved Estrogenic Activity” (Biomedicines, 2025).
